The subject of test [1] is MDA-MB-231 cancer cell line. The test is described as follows: Cell growth assay (WST-8). Conditions: Homo sapiens, MDA-MB-231, 96 h; WST-8, 4 days; read-out: Inhibition of cell growth IC50, MDA-MB-231 cancer cell line. Format: cell-based. The procedure, abridged: (§1)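 Cells (3000–4000/well) grown 4 days with varied compound concentrations, then WST-8 dye added for 1–3 h and absorbance read at 450 nm. Growth inhibition expressed as sample-to-control absorbance ratio.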

Test [2] concerns MDA-MB-468 cancer cell line. The test is described as follows: Cell growth assay (WST-8). The format is cell-based. As to conditions: Homo sapiens, MDA-MB-468, 96 h; WST-8, 4 days; read-out: Inhibition of cell growth IC50, MDA-MB-468 cancer cell line. The procedure, abridged:
as §1
(In general: Tetrazolium assays rely on reduction of a dye to a coloured formazan, in cell work by metabolically active cells.)

In another test the target is T1, STAT3 protein (Homo sapiens, UniProt P40763).
T1 construct: human STAT3 protein (residues 122-722) fused to His-tag; His-tag
The test is described as follows: In vitro competitive STAT3 binding assay (fluorescence polarization). An outline of the steps: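 FP competition: His-tagged human STAT3 (122-722), 150 nM, with 5 nM 5-Fam-labelled pYLPQTV phosphopeptide tracer (STT2) and titrated inhibitor, read after 2-3 h. IC50 = concentration displacing 50% of tracer, by nonlinear least-squares fit.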

A value given as a limit tells only on which side of the number the result lay.

T1 sequence (P40763 122-722): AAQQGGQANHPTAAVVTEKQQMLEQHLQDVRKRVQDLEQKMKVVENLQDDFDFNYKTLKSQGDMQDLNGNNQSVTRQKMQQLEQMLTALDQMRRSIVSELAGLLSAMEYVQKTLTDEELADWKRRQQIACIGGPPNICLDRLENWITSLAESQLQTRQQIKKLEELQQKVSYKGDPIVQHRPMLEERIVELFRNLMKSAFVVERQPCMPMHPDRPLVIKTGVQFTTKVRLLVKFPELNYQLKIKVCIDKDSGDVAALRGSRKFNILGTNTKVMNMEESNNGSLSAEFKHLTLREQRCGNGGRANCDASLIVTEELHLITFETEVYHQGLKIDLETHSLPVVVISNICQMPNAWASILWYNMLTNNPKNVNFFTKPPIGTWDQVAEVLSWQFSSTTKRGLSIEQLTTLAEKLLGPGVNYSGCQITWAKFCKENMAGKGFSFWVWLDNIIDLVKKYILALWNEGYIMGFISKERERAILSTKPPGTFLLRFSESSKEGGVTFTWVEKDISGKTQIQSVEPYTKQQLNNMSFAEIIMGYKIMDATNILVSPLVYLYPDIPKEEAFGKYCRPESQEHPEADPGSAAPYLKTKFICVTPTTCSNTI

As for `CCCCCCCCCCCCCCCC(=O)N[C@@H](Cc1ccc(OP(=O)(O)O)cc1)C(=O)NC1CCCC[C@H]2CC[C@@H](C(=O)N[C@@H](Cc3c[nH]cn3)C(=O)NCc3ccccc3)N2C1=O` (stereo partly drawn) [Example 38], the IC50 is under 50 µM in test [1], under 60 µM in test [2] and under 100 µM on STAT3 protein.
As for `NC(=O)CC[C@H](NC(=O)[C@@H]1CCC2CCCC[C@H](NC(=O)/C=C/c3ccc(OP(=O)(O)O)cc3)C(=O)N21)C(=O)NCc1ccccc1` (stereo partly drawn) [Example 56], the 50% inhibitory concentration (IC50) was over 100 µM in test [1], over 100 µM in test [2] and under 1 µM on STAT3 protein.
Turning to `NC(=O)CC[C@H](NC(=O)[C@@H]1CCC2CCCC[C@H](NC(=O)c3cc4cc(OP(=O)(O)O)ccc4[nH]3)C(=O)N21)C(=O)NCc1ccccc1` (stereo partly drawn) [Example 57], the 50% inhibitory concentration (IC50) in test [1] is over 100 µM; in test [2] it was over 100 µM; on STAT3 protein, under 1 µM.
As to `NC(=O)CC[C@H](NC(=O)[C@@H]1CCC2CCCC[C@H](NC(=O)c3cc4cc(CP(=O)(O)O)ccc4[nH]3)C(=O)N21)C(=O)NCc1ccccc1` (stereo partly drawn) [Example 58], the IC50 in test [1] is over 100 µM; in test [2] it was over 100 µM; on STAT3 protein it was under 10 µM.

What is called IC50 is the point on the concentration scale where inhibition reaches its midpoint.
